Reference: patent publication US7741327B2 (Hoffmann-La Roche Inc., priority 2008, dated 2010)

biological target: T1, Recombinant human liver GK1 (GST-GK) (Homo sapiens, UniProt P35557); test: In vitro glucokinase activity (G6PDH-coupled NADH assay); assay type: biochemical; details: 30° C., 5 mM D-glucose, 10% DMSO
T1 construct: made in house; host or cells: E. coli
T1 sequence (P35557 1-466 isoform P35557-2): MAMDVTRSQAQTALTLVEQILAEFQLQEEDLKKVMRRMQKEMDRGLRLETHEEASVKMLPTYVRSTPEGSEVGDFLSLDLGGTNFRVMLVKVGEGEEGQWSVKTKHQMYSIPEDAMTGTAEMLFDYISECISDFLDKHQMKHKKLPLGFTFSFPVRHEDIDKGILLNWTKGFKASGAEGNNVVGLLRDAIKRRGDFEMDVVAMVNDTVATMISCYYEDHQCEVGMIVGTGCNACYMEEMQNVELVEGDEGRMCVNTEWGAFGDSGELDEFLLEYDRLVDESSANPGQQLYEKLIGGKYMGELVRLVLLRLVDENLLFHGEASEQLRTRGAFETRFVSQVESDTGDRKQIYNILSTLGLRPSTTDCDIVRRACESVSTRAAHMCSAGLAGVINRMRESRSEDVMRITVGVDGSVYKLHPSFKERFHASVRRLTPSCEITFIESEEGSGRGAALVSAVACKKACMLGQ
Outline: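 Activation measured as the rate of OD340 rise from G6PDH-coupled NADH production, relative to 10% DMSO control, reported as SC1.5 (concentration for 50% activity increase). Conditions: 30° C, pH 7.1 Hepes, 5 mM glucose, 1 mM ATP, purified recombinant GST-human GK1, compound preincubated 10 min before enzyme addition.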

Structure (SMILES)	SC1.5 (concentration of activator that produced a 50% increase in the activity of GK) [µM]
CCOc1ccc(F)c(OC2=CC(=O)N([C@H](CC3CCOCC3)C(=O)Nc3ccn(CC(C)(C)O)n3)C2)c1F (single isomer, unassigned) [Example 258]	4.435
CC[C@H](C)CC(C(=O)Nc1ccn(C[C@@H]2COC(C)(C)O2)n1)N1CC(Oc2ccccc2Cl)=CC1=O (mixture of isomers) [Example 248, (S)-2-[4-(2-Chloro-phenoxy)-2-oxo-2,5-dihydro-pyrrol-1-yl]-4-methyl-hexanoic acid [1-((R)-2,2-dimethyl-[1,3]dioxolan-4-ylmethyl)-1H-pyrazol-3-yl]-amide]	0.304
Cc1ccccc1OC1=CC(=O)N([C@@H](CC(C)C)C(=O)Nc2ccn(C[C@@H]3COC(C)(C)O3)n2)C1 [Example 123, (S)-4-Methyl-2-(2-oxo-4-o-tolyloxy-2,5-dihydro-pyrrol-1-yl)-pentanoic acid [1-((R)-2,2-dimethyl-[1,3]dioxolan-4-yl-methyl)-1H-pyrazol-3-yl]-amide]	1.294
O=C(Nc1ccn(C[C@@H](O)CO)n1)[C@H](Cc1ccccc1F)N1CC(Oc2ccccc2Cl)=CC1=O [Example 183, (S)-2-[4-(2-chloro-phenoxy)-2-oxo-2,5-dihydro-pyrrol-1-yl]-N-[1-((R)-2,3-dihydroxy-propyl)-1H-pyrazol-3-yl]-3-(2-fluorophenyl)-propionamide]	0.325
O=C(Nc1ccn(C[C@@H](O)CO)n1)C(CC(F)F)N1CC(Oc2ccccc2Cl)=CC1=O (stereo partly drawn) [Example 221, 2-[4-(2-Chloro-phenoxy)-2-oxo-2,5-dihydro-pyrrol-1-yl]-N-[1-((R)-2,3-dihydroxy-propyl)-1H-pyrazol-3-yl]-4,4-difluoro-butyramide]	17.303
O=C(Nc1ccn(C[C@@H](O)CO)n1)[C@@H](CC1CCC1)N1CC(Oc2ccccc2Cl)=CC1=O [Example 177, (R)-2-[4-(2-chloro-phenoxy)-2-oxo-2,5-dihydro-pyrrol-1-yl]-3-cyclobutyl-N-[1-((R)-2,3-dihydroxy-propyl)-1H-pyrazol-3-yl]-propionamide]	4.725
CC(C)C[C@@H](C(=O)Nc1ccn(C[C@@H](O)CO)n1)N1CC(Oc2cccc3c2cnn3C)=CC1=O [Example 240, (S)-4-Methyl-2-[4-(1-methyl-1H-indazol-4-yloxy)-2-oxo-2,5-dihydro-pyrrol-1-yl]-pentanoic acid [1-((R)-2,3-dihydroxy-propyl)-1H-pyrazol-3-yl]-amide]	2.636
CC(C)C[C@@H](C(=O)Nc1ccn(C[C@@H]2C[C@H](CC(=O)OC(C)(C)C)OC(C)(C)O2)n1)N1CC(Oc2ccccc2Cl)=CC1=O [Example 192]	0.412
CC(C)C[C@@H](C(=O)Nc1ccn(C[C@@H](N)CO)n1)N1CC(Oc2ccccc2Cl)=CC1=O [Example 180, (S)-2-[4-(2-chloro-phenoxy)-2-oxo-2,5-dihydro-pyrrol-1-yl]-4-methyl-pentanoic acid [1-((R)-2-amino-3-hydroxy-propyl)-1H-pyrazol-3-yl]-amide]	6.393
Cc1cccc(OC2=CC(=O)N([C@@H](CC(C)C)C(=O)Nc3ccn(C[C@@H](O)CO)n3)C2)c1F [Example 131, (S)-2-[4-(2-Fluoro-3-methyl-phenoxy)-2-oxo-2,5-dihydro-pyrrol-1-yl]-4-methyl-pentanoic acid [1-((R)-2,3-dihydroxy-propyl)-1H-pyrazol-3-yl]-amide]	0.117
CC(C)Oc1ccccc1OC1=CC(=O)N([C@@H](CC2CCCCC2)C(=O)Nc2ccn(CC(C)(C)O)n2)C1 [Example 195, (S)-3-cyclohexyl-N-[1-(2-hydroxy-2-methyl-propyl)-1H-pyrazol-3-yl]-2-[4-(2-isopropoxy-phenoxy)-2-oxo-2,5-dihydro-pyrrol-1yl]-propionamide]	0.681

Continued, values first:

SC1.5 (concentration of activator that produced a 50% increase in the activity of GK) [µM]	Structure (SMILES)
0.058	Cl.O=C(Nc1cnccn1)[C@H](CC1CCCCC1)N1CC(Oc2c(F)cccc2Cl)=CC1=O [Example 71, (S)-2-[4-(2-Chloro-6-fluoro-phenoxy)-2-oxo-2,5-dihydro-pyrrol-1-yl]-3-cyclohexyl-N-pyrazin-2-yl-propionamide Hydrochloride]
4.985	COC1=CC(=O)N([C@@H](CC2CCCCC2)C(=O)Nc2ccn(CC(C)(C)O)n2)C1 [Example 56, (S)-3-Cyclohexyl-N-[1-(2-hydroxy-2-methyl-propyl)-1H-pyrazol-3-yl]-2-(4-methoxy-2-oxo-2,5-dihydro-pyrrol-1-yl)-propionamide]
5.251	CCCOC1=CC(=O)N([C@@H](CC2CCCCC2)C(=O)Nc2ccn(CC(C)(C)O)n2)C1 [Example 24, (S)-3-Cyclohexyl-N-[1-(2-hydroxy-2-methyl-propyl)-1H-pyrazol-3-yl]-2-(2-oxo-4-propoxy-2,5-dihydro-pyrrol-1-yl)-propionamide]
1.629	CC1(C)OC[C@@H](Cn2ccc(NC(=O)[C@H](Cc3ccccc3Cl)N3CC(Oc4ccccc4Cl)=CC3=O)n2)O1 [Example 188, (S)-2-[4-(2-chloro-phenoxy)-2-oxo-2,5-dihydro-pyrrol-1-yl]-N-[1-((R)-2,2-dimethyl-[1,3]dioxolan-4-yl-methyl)-1H-pyrazol-3-yl]-3-(2-chlorophenyl)-propionamide]
3.99	COC1=CC(=O)N([C@@H](CC2CCCC2)C(=O)Nc2ccc(C(=O)O)cn2)C1 [Example 11, 6-[(S)-3-Cyclopentyl-2-(4-methoxy-2-oxo-2,5-dihydro-pyrrol-1-yl)-propionylamino]-nicotinic acid]
0.042	CCOc1cccc(OC2=CC(=O)N([C@@H](CC(C)C)C(=O)Nc3ccn(C[C@@H](O)CO)n3)C2)c1Cl [Example 161, (S)-2-[4-(2-chloro-3-ethoxy-phenoxy)-2-oxo-2,5-dihydro-pyrrol-1-yl]-4-methyl-pentanoic acid [1-((R)-2,3-dihydroxy-propyl)-1H-pyrazol-3-yl]-amide]
0.161	CC(C)(O)Cn1ccc(NC(=O)[C@H](CC2CCCCO2)N2CC(Oc3cccc(Cl)c3Cl)=CC2=O)n1 (stereo partly drawn) [Example 92, (S)-2-[4-(2,3-Dichloro-phenoxy)-2-oxo-2,5-dihydro-pyrrol-1-yl]-N-[1-(2-hydroxy-2-methyl-propyl)-1H-pyrazol-3-yl]-3-(tetrahydro-pyran-2-yl)-propionamide]
0.133	CC(C)C[C@@H](C(=O)Nc1ccn(C[C@H]2COC(C)(C)O2)n1)N1CC(Oc2ccccc2Cl)=CC1=O [Example 174, (S)-2-[4-(2-Chloro-phenoxy)-2-oxo-2,5-dihydro-pyrrol-1-yl]-4-methyl-pentanoic acid [1-((S)-2,2-dimethyl-[1,3]dioxolan-4-yl-methyl)-1H-pyrazol-3-yl]-amide]
